From patent US12133714B2, “Line excitation array detection microscopy” (BOARD OF REGENTS, THE UNIVERSITY OF TEXAS SYSTEM, priority 2018, dated 2024)
“Also recorded” adds a separate entry of the source.

How the values were obtained:
[1] = system: polyQ40 strain C. elegans (polyglutamine mediated aggregation of YFP-labeled protein in body wall muscle cells); experiment: LEAD flow cytometry imaging of polyQ aggregation model C. elegans treated with drug; assay type: in vivo; conditions: for number of fluorescent protein aggregates per animal (median ± standard deviation): polyQ40 animals treated at L1 stage, imaged at late L4 stage, untreated polyQ40 27±3
Excerpt: The model simulates human Huntington's disease through CAG repeats in the huntingtin allele, with 35 or more repeats resulting in polyglutamine (polyQ) mediated aggregation, protein misfolding, and cellular toxicity^36. Specifically, the polyQ40 strain was imaged with 40 CAG repeats at the late L4 stage when the disease phenotype presents as aggregation of YFP-labeled protein in the body wall muscle cells. The aggregates are 1-5 μm in diameter and distributed in 3D along the length of the animal, and therefore requires relatively high resolution volumetric imaging. […] Populations of up to 300 animals were imaged. The animals moved at 0.89±0.31 m/s through the imaging channel, resulting in an imaging time of 1.07±0.26 ms per animal with the majority of the population imaged within 1 second (See FIGS. 10B, 10C). The maximum available laser power of 4 mW at the sample was sufficient to utilize the full dynamic range of our collection system. […] Despite the ultrafast scanning, C. elegans images show SNRs exceeding 500 for the center PMT elements and slightly lower SNR for the less responsive surrounding elements in accordance with the PMT specifications (see FIG. 9D). 27±3 (median±standard deviation) aggregates per animal for the polyQ40 strain were found, similar to previous findings for worms at the same stage^36. […] PolyQ40 animals were treated with either 25 or 50 μM dronedarone at the L1 stage, and were imaged at the late L4 stage (FIG. 16A). The drug reduced aggregation to 16±5 and 7±2 aggregates per animal for 25 μM and 50 μM, respectively, showing a dose response (FIG. 16B). The system's high-speed 3D imaging capability for drug screening is established by the short imaging time for the effectivity of dronedarone reaches a statistically significant level—animals treated with 25 and 50 μM dronedarone reach p=0.001 in under 0.25 s and 0.10 s, respectively (FIG. 16C). […]

[2] = system: polyQ40 strain C. elegans (polyglutamine mediated aggregation of YFP-labeled protein in body wall muscle cells); conditions: polyQ40 animals, earlier publication (ref. 37); cited from earlier work

CCCCc1oc2ccc(NS(C)(=O)=O)cc2c1C(=O)c1ccc(OCCCN(CCCC)CCCC)cc1 [dronedarone]
number of fluorescent protein aggregates per animal (median ± standard deviation) ([1]; 25 μM): 16±5 aggregates per animal
number of fluorescent protein aggregates per animal (median ± standard deviation) ([1]; 50 μM): 7±2 aggregates per animal
effect on formation of protein aggregates (in words) ([1]; polyQ40 animals, 25 and 50 μM, LEAD imaging): prevents the formation of protein aggregates with a dose response; also recorded: can reduce aggregation with a dose response
effect on formation of aggregates, previously observed (in words) [2]: prevents the formation of aggregates in the polyQ40 animals
